Earlier results, collected in patent publication US7838081B2, “Liquor that avoids the apparition of stains produced by fungi in lignocellulosic materials such as wood” (priority 2005, dated 2010).

Compound: Oc1c(Br)cc(Br)cc1Br [2,4,6 Tribromophenol]
- LD50 acute oral rat (rat): >5.000 mg/kg
- LD50 acute termal rabbit (rabbit): >8.000 mg/kg
- Results against stains of the wood (in words) (stains of the wood): good results

Compound: [Cu+2].[O-]c1cccc2cccnc12.[O-]c1cccc2cccnc12 [Copper 8 oxiquinolinate (PQ-8), Copper 8 oxiquinolinate]
- LD50 acute oral rat (rat): 3.900 to 4.700 mg/kg
- LD50 acute termal rabbit (rabbit): >2.000 mg/kg

Compound: Oc1c(Cl)c(Cl)c(Cl)c(Cl)c1Cl [Pentachlorophenol]
- Results against stains of the wood (in words) (stains of the wood): good results
